Measured values: US20170246468A1, “METHODS AND SYSTEMS FOR CONTROLLING OR TUNING THE ELECTRIC FIELD GENERATED IN SKIN OR TISSUE DURING COLD PLASMA SKIN TREATMENTS” (EP Technologies LLC, priority 2016, published 2017)

Experiments:
[1] = transport through open pores in the SC of a plasma treated area; settings: applied more than 5 minutes after plasma treatment
[2] = plasmaporation-enhanced transdermal delivery across ex vivo porcine skin; assay type: in vitro ADME
From the text: 27, 2013 and Sep. 29, 2013 incorporated herein. Others devices and techniques are described in U.S. Non-Provisional application Ser. No. 14/564,717 filed on Dec. 9, 2014, U.S. Non-Provisional application Ser. No. 14/610,467 filed on Jan. 30, 2015, and U.S. Non-Provisional application Ser. No. 14/967,512 filed on Dec. 14, 2015. All of these applications are incorporated by reference herein in their entirety.

Row | Substance | transport through the SC when applied after 5 minutes [1] | skin damage [2] | time of transdermal delivery of topically applied molecules across skin with plasmaporation ([2]; topically applied) [min]
1 | Dextran [10 kDa Dextran] | no longer passed through the SC | – | –
2 | dextran | – | without creating skin damage | ≤ 15
